Data reported in patent US8906846B2, “Method of treating inflammatory bowel disease by administering a clip-inducing agent” (The Texas A&M University System, priority 2011, dated 2014).

Columns and labels:
[1] = test system: CRL-5822 cells; test: Effects of CpG, MKR.4 and anti-MHC class II antibody on CRL-5822 cell viability counts (Example 2); assay type: cell-based, human; settings: CpG 1 ug/mL at start, MKR.4 2.5 ug/mL 24 h later for 2 h, Anti MHC Class II 5 ug/mL, viability counts 24 h after antibody
Procedure: CRL-5822 were Prepared as Follows: • Removed the media from a flask of CRL-5822 using a sterile glass pipet and vacuum • Added 1.5 mL of accutase to the flask and placed in incubator for 20 minutes • Washed with 3 mL of PBS • Transferred all to a sterile 15 mL conical tube • Centrifuged for 5′@1000 rpm • Removed supernatant with sterile glass pipet and vacuum • Resuspended in 3 mL of PBS • Performed a hemacytometer count indicating: 1.14*10^6 cells total of CRL-5822 cells • 1.14*10^6/8 wells+2 wells for culture maintenance=10 wells • 1.14*10^6/10 wells=[…] cells per well • Centrifuged the 3 mL of cell suspension for 5′ at 1000 rpm • Resuspended pellet in 10 mL of 10% FBS RPMI • 1 mL of this was added to 2 wells in a 12-well plate added 1 mL of fresh 10% FBS RPMI to each well to bring the total volume up to 2 mL.
(§1) 8 wells were set up for the experiment for each cell type (CRL-5822 and C57BL/6) with no treatment, with CpG, MKR.4 peptide, with MKR.4 peptide+CpG and with or without addition of purified Anti Class-II (HLA-DR,DP,DQ) treatment in the amounts listed below.
CRL-5822 • CpG: • (x) (1 mg/mL stock)=(1 ug/mL) (2 mL) • x=2 ul • MKR.4: • (x) (5 mg/mL stock)=(2.5 ug/mL) (2 mL) • x=1 ul • Anti MHC Class II • Treat at 5 ug/mL • Stock is at 1 mg/mL • (x) (1 mg/mL)=(5 ug/mL) (2 mL) • x=10 ul/well
(§2) CpG was administered to activate the cells and induce CLIP expression. MKR.4 was added to select wells 24 hours after cell activation. The cells were incubated with MKR.4 for 2 hours. Then fresh media with or without Anti MHC Class II was added. 24 hours after Anti MHC Class II was added to the wells viability counts were performed.

[2] = test system: C57BL/6 splenocytes; test: Effects of CpG, MKR.4 and anti-MHC class II antibody on C57BL/6 splenocyte viability counts (Example 2); assay type: cell-based, mouse; settings: CpG 5 ug/mL at start, MKR.4 5 ug/mL 24 h later for 2 h, Anti MHC Class II 5 ug/mL, viability counts 24 h after antibody
Procedure: C57BL/6 were Prepared as Follows: • A spleen from a C57BL/6 mouse was placed in a cell strainer in a petri dish with 6 mL of PBS • The spleen was mashed to produce a cell suspension • The PBS splenocyte cell suspension was transferred into a labeled 15 mL conical tube and centrifuged for 5 minutes at 1000 rpm • The pellet was resuspended in 1 mL of PBS • Geys was prepared to lyse the red blood cells • 7 mL of DI H20 • 0.5 mL of Geys B • 0.5 mL of Geys C • weighed out […] of NH4Cl • Mixed the […] of NH4Cl with 2 mL of Geys A • Transferred the dissolved solution to a 15 mL conical tube with the H20, Geys B, and Geys C • 3 mL of the Geys solution was added to the 1 mL of PBS cell suspension, mixed well and placed on ice for 1 minute (frequently inverted solution in tube on ice during the 1 minute) • The mixture was centrifuged for 5 minutes at 1000 rpm, washed with 5 mL of PBS, centrifuged for 5 minutes at 1000 rpm and resuspended in 10 mL of PBS • A hemacytometer count was performed: 99.0*10^6 cells total (9.9*10^6 cells/mL) plate 4*10^6 cells per well*8 wells=32 million; 32*10^6/9.9*10^6=3.23 mL of this suspension needed to obtain 32*10^6 cells • Centrifuged 3.23 mL of the suspension for 5 minutes at 1000 rpm and resuspended the pellet in 8 mL of 5% FBS RPMI • 1 mL of suspension was added to each well (12-well plate) • Added another 2 mL of 5% FBS RPMI to each well to bring the final volume up to 3 mL
as §1
C57BL/6 • CpG: • (x) (1 mg/mL stock)=(5 ug/mL) (3 mL) • x=15 ul • MKR.4: • (x) (5 mg/mL stock)=(5 ug/mL) (3 mL) • x=3 ul • Anti MHC Class II • Treat at 5 ug/mL • Stock is at 1 mg/mL • (x) (1 mg/mL)=(5 ug/mL) (3 mL) • x=15 ul/well
as §2

[3] = test system: CRL-5822 cells; test: Effects of LPS, MKR.4 and anti-MHC class II antibody on CRL-5822 cell viability counts (Example 1); assay type: cell-based, human; settings: LPS 1 ug/mL at start, MKR.4 2.5 ug/mL 24 h later for 2 h, Anti MHC Class II 5 ug/mL, viability counts 24 h after antibody
Procedure: Methods • The media was removed from a flask of CRL-5822 using a sterile glass pipet and vacuum and 1.5 mL of accutase was added to the flask and placed in incubator for 20 minutes • The cells were washed with 3 mL of PBS and transferred to a sterile 15 mL conical tube and centrifuged for 5 minutes @1000 rpm • The supernatant was removed with sterile glass pipet and vacuum and the pellet resuspended in 5 mL of PBS • A cell count was performed using the TC-10 automated counter • Loaded 10 ul of cell suspension+10 ul of trypan blue into disposable counting slide • Loaded slide into the TC-10 • Count • Live: 3.54*10^4 cells/mL*5 mL=177,000 cells total • 177,000/9 wells (8 wells in experiment+1 to maintain culture)=19,666 cells/well (flask). • The 5 mL of cell suspension was centrifuged for 5′ at 1000 rpm, the pellet was resuspended in 9 mL of 10% FBS RPMI • 1 mL of the cell suspension was added to a T-25 flask that had 4 mL of media in it and placed in the incubator. • After culture 1 mL of the cell suspension was added to each well (8 wells in a labeled 24 well plate) • A fresh vial of MKR.4 was resuspended in sterile DMSO • 7 mg of peptide was used to make a 5 mg/mL stock • 7 mg/mL=5 mg/mL=1.4 mL of DMSO • The peptide was added into 1.4 mL of DMSO, under the hood to maintain sterility • Once all of the peptide was dissolved, 200 ul aliquots were made […]

## 5′-tcgtcgttttgtcgttttgtcgtt-3′ [CpG, reference compound]
[1]
  Total Dead: 0.07*10^6
  Total Live: 0.35*10^6
[2]
  Total Dead: 0.08*10^6
  Total Live: 1.25*10^6

## ANS GFR IMA VLA SGG QY (ANSGFRIMAVLASGGQY) [MKR.4]
[3]
  Total Dead: 0.07*10^6
  Total Live: 0.32*10^6
[1]
  Total Dead: 0.08*10^6
  Total Live: 0.24*10^6
[2]
  Total Dead: 0.10*10^6
  Total Live: 0.44*10^6
